Among the data in BindingDB's records for doi:10.1016/j.bmcl.2005.11.011 (University of Pennsylvania, 2006) are IC50 values, retold here.

The structures appear in SMILES notation.

For the test, the target named is T1, Dimer of Gag-Pol polyprotein [489-587] (Human immunodeficiency virus 1, UniProt P12497).
T1 construct: 489-587
Briefly: Protease Inhibition Assay. The settings on record: pH 5.5; 30 °C.
`O=C(N[C@@H](Cc1ccccc1)[C@@H](O)C[C@]1(Cc2ccccc2)N=CC(C2CNC(=O)c3ccccc32)C1=O)O[C@H]1CCOC1` (stereo partly drawn) [(3S)-oxolan-3-yl N-[(2S,3S)-4-[(2S)-2-benzyl-3-oxo-4-(1-oxo-1,2,3,4-tetrahydroisoquinolin-4-yl)-2,3-dihydro-1H-pyrrol-2-yl]-3-hydroxy-1-phenylbutan-2-yl]carbamate] displayed an IC50 of 5.7 nM.
The result for `NC(=O)O[C@@H]1Cc2ccccc2C1C1C=N[C@@](Cc2ccccc2)(C[C@H](O)[C@H](Cc2ccccc2)NC(=O)O[C@H]2CCOC2)C1=O` (stereo partly drawn) [(3S)-oxolan-3-yl N-[(2S,3S)-4-[(2S)-2-benzyl-4-[(2R)-2-(carbamoyloxy)-2,3-dihydro-1H-inden-1-yl]-3-oxo-2,3-dihydro-1H-pyrrol-2-yl]-3-hydroxy-1-phenylbutan-2-yl]carbamate] reads 2 nM.
Compound `O=C(N[C@@H](Cc1ccccc1)[C@@H](O)C[C@]1(Cc2ccccc2)N=CC(C2c3ccccc3C[C@H]2O)C1=O)O[C@H]1CCOC1` (stereo partly drawn) [(3S)-oxolan-3-yl N-[(2S,3S)-4-[(2S)-2-benzyl-4-[(2R)-2-hydroxy-2,3-dihydro-1H-inden-1-yl]-3-oxo-2,3-dihydro-1H-pyrrol-2-yl]-3-hydroxy-1-phenylbutan-2-yl]carbamate] registered an IC50 of 2 nM.
Regarding `O=C(N[C@@H](Cc1ccccc1)[C@@H](O)C[C@]1(Cc2ccccc2)N=CC(C2c3ccccc3[C@H]3NC(=O)O[C@@H]23)C1=O)O[C@H]1CCOC1` (stereo partly drawn) [(3S)-oxolan-3-yl N-[(2S,3S)-4-[(2S)-4-[(3aR,8aS)-2-oxo-2H,3H,3aH,8H,8aH-indeno[1,2-d][1,3]oxazol-8-yl]-2-benzyl-3-oxo-2,3-dihydro-1H-pyrrol-2-yl]-3-hydroxy-1-phenylbutan-2-yl]carbamate], it took 0.44 nM to reach half-maximal inhibition (IC50).
For the compound `CC(C)(C)CC(=O)N[C@@H](Cc1ccccc1)[C@@H](O)C[C@]1(Cc2ccccc2)N=CC(C2C[C@H](CC(N)=O)c3ccccc32)C1=O` (stereo partly drawn) [N-[(2S,3S)-4-[(2S)-2-benzyl-4-[(3R)-3-(carbamoylmethyl)-2,3-dihydro-1H-inden-1-yl]-3-oxo-2,3-dihydro-1H-pyrrol-2-yl]-3-hydroxy-1-phenylbutan-2-yl]-3,3-dimethylbutanamide], the IC50 is greater than 250 nM.
`CC(C)(C)CC(=O)N[C@@H](Cc1ccccc1)[C@@H](O)C[C@]1(Cc2ccccc2)N=CC(C2c3ccccc3[C@H]3NC(=O)O[C@@H]23)C1=O` (stereo partly drawn) [N-[(2S,3S)-4-[(2S)-4-[(3aR,8aS)-2-oxo-2H,3H,3aH,8H,8aH-indeno[1,2-d][1,3]oxazol-8-yl]-2-benzyl-3-oxo-2,3-dihydro-1H-pyrrol-2-yl]-3-hydroxy-1-phenylbutan-2-yl]-3,3-dimethylbutanamide]: the IC50 was found to be 96 nM.
Next, `CC(C)(C)OC(=O)N[C@@H](Cc1ccccc1)[C@@H](O)C[C@]1(Cc2ccccc2)N=CC(C2C[C@H](CC(N)=O)c3ccccc32)C1=O` (stereo partly drawn) [tert-butyl N-[(2S,3S)-4-[(2S)-2-benzyl-4-[(3R)-3-(carbamoylmethyl)-2,3-dihydro-1H-inden-1-yl]-3-oxo-2,3-dihydro-1H-pyrrol-2-yl]-3-hydroxy-1-phenylbutan-2-yl]carbamate]: 20.5 nM; `CC(C)(C)OC(=O)N[C@@H](Cc1ccccc1)[C@@H](O)C[C@]1(Cc2ccccc2)N=CC(C2c3ccccc3[C@H]3NC(=O)O[C@@H]23)C1=O` (stereo partly drawn) [tert-butyl N-[(2S,3S)-4-[(2S)-4-[(3aR,8aS)-2-oxo-2H,3H,3aH,8H,8aH-indeno[1,2-d][1,3]oxazol-8-yl]-2-benzyl-3-oxo-2,3-dihydro-1H-pyrrol-2-yl]-3-hydroxy-1-phenylbutan-2-yl]carbamate]: 2.5 nM.

As a reminder, the IC50 is the concentration that gives 50% inhibition. A higher IC50 goes with lower potency.
